Assay results reported in patent US9421211B2, “N,N′-diarylurea compounds and N,N′-diarylthiourea compounds as inhibitors of translation initiation” (President and Fellows of Harvard College, priority 2009, dated 2016).
Where two headings read alike, the source gives them in different places.

Key:
[1] = system: eIF2.GTP.Met-tRNAi ternary complex; test: ATF-4 assay (firefly/renilla luciferase ratio) in CRL-2351 cell line; assay type: cell-based, human; conditions: for maximal fold induction / EC (activity threshold of 5): Homo sapiens; for maximal fold induction: read-out: ATF-4 Amax: maximal activity, ratio of firefly over renilla luciferase expression; for EC (activity threshold of 5): read-out: ATF-4 C[5] (μM): concentration corresponding to an activity threshold of 5; for Cmax: read-out: ATF-4 Cmax (μM): concentration corresponding to the maximal activity
Excerpt: For example, reducing amount of the ternary complex increases translation of ATF-4, which results in elevated expression of CHOP mRNA and protein. Therefore, expression of endogenous CHOP mRNA and CHOP protein in KLN-tTA/pBISA-DL^(ATF-4) cells were utilized as secondary assays to validate N,N′-diarylurea compounds as modifiers of the eIF2.GTP.Met-tRNAi ternary complex. […] To rule out the possibility that the activity of N,N′-diarylurea compounds was confined to a single cell type, the effects of these compounds on the ternary complex assay and the expression of CHOP mRNA was assayed in CRL-2351, PC-3, CRL-2813 human breast, prostate, and melanoma cancer cell lines respectively. For the reporter gene assay, the three human cell lines were co-transfected with tTA expression vector and the pBISA-DL^(ATF-4) dual luciferase expression vector shown in FIG. 6. […] The expression of CHOP mRNA was assayed by real time PCR in the same cell lines treated with 5 or 20 μM of each compound.
Stable and transient transfection: Cells were seeded at the density of 10^5 in 60-mm (stable transfection) or 10^4 cells per well of 96-well plate (transient transfection) plates and transfected one day later using the Qiagen Transfectamine transfection kit. For selection of stable cell lines, transfected cells were transferred to 100-mm plates and selected with appropriate antibiotics.
Dual luciferase assay: Cells or minced tumors expressing firefly and renilla luciferases were lysed and the extracts assayed with a glow type dual luciferase assay kit, per manufacturer's instruction (Promega Inc., Madison, Wis.).

[2] = system: KLN mouse squamous cell carcinoma cells; test: Cell proliferation SRB assay, KLN; assay type: cell-based
Method: (§1) Reduced availability of the ternary complex causes inhibition of translation initiation and thereby of cell proliferation. […] The effects of N,N′-diarylureas on the proliferation KLN mouse squamous cell carcinoma, CRL-2351 human breast, CRL-2813 human melanoma, A549 human lung and PC-3 human prostate cancer cell lines were tested.
(§2) Cell Growth Assay: Cell Growth was Measured by the SRB Assay.

[3] = system: CRL-2813 human melanoma cells; test: Cell proliferation SRB assay, CRL-2813; assay type: cell-based
Method: as §1, with “tested. […]” for “tested.”
as §2

[4] = system: CRL-2351 human breast cancer cells; test: Cell proliferation SRB assay, CRL-2351; assay type: cell-based; conditions: Homo sapiens
Method: as §1, §2

[5] = system: A549 human lung cancer cells; test: Cell proliferation SRB assay, A549; assay type: cell-based; conditions: read-out: IC50 (μM), concentration that inhibits cell proliferation by 50%
Method: as §1, §2

[6] = system: PC-3 human prostate cancer cells; test: Cell proliferation SRB assay, PC-3; assay type: cell-based; conditions: read-out: IC50 (μM), concentration that inhibits cell proliferation by 50%
Method: as §1
To determine if N,N′-diarylureas inhibit cell proliferation by reducing the availability of the ternary complex, the effect of N,N′-diarylureas on proliferation of previously described transgenic PC-3 human prostate cancer cell lines expressing either the non-phosphorylatable eIF2α-S51A mutant or the eIF2α-WT was studied. […] Reducing the expression of HRI, the eIF2α kinase that mediates N,N′-diarylurea induced phosphorylation of eIF2α similarly abrogates the effect of these agents on cell proliferation (FIGS. 15C and 15D).
as §2

[7] = In vivo toxicity, seven day administration to mice; conditions: female nude mice, 100 or 200 mg/kg daily for seven days, observed 15 days
Method: Five female nude mice each were treated with 200 mg/kg, 100 mg/kg #1781 in 15 μl DMSO or 15 μl DMSO daily for seven days. Mice were observed daily for signs of toxicity and weighed every other day for total of 15 days and then necropsy was performed. The average body of each group is plotted against the time.
To study toxicity effects, mice were treated with various doses of compound #1781 or vehicle.

[8] = KLN cells, read-out: IC50 (μM) by SRB assay, KLN
[9] = CRL2813, 2813 cells, read-out: IC50 (μM) by SRB assay, 2813
[10] = 2351 cells, read-out: IC50 (μM) by SRB assay, 2351
[11] = KLN, read-out: IC50 (μM), concentration that inhibits cell proliferation by 50%
[12] = CRL2813, CRL-2813, read-out: IC50 (μM), concentration that inhibits cell proliferation by 50%
[13] = CRL-2351, read-out: IC50 (μM), concentration that inhibits cell proliferation by 50%

Row | Structure (SMILES) | Cmax [1] | IC50 [2, 8] | IC50 [3, 9] | IC50 [4, 10] | IC50 [2, 11] | IC50 [3, 12] | IC50 [4, 13] | IC50 [5] | IC50 [6] | maximal fold induction [1] | EC (activity threshold of 5) [1] | In vivo toxicity [7]
1 | O=C(Nc1ccc(Cl)c(Cl)c1)Nc1ccc(Cl)c(Cl)c1 [Compound 1, 1,3-bis(3,4-dichlorophenyl)urea] | 5 µM | > 20 µM | 0.8 µM | 2.6 µM |  |  |  |  |  | 11 | 2 µM | 
2 | Cc1ccc(NC(=O)Nc2ccc(Cl)c(C(F)(F)F)c2)cc1O [Compound 5, 3-[4-chloro-3-(trifluoromethyl)phenyl]-1-(3-hydroxy-4-methylphenyl)urea] | 10 µM | 20 µM | 1.6 µM | 9.3 µM |  |  |  |  |  | 11 | 6 µM | 
3 | COc1cc(NC(=O)Nc2ccc(Cl)c(Cl)c2)ccc1C [Compound 7] |  | > 20 µM | > 20 µM | 11 µM |  |  |  |  |  |  |  | 
4 | COc1cc(NC(=O)Nc2ccc(Cl)c(C(F)(F)F)c2)ccc1C [Compound 8] | 10 µM | 17.2 µM | 3 µM | 2.5 µM |  |  |  |  |  | 8 | 3 µM | 
5 | COc1cc(NC(=O)Nc2cc(C(F)(F)F)cc(C(F)(F)F)c2)ccc1C [Compound 9] | 20 µM | 20 µM | 0.7 µM | 2.2 µM |  |  |  |  |  | 12 | < 2.5 µM | 
6 | Cc1ccc(NC(=O)Nc2ccc(Cl)c(C(F)(F)F)c2)cc1OCCN(C)C [Compound 12, 3-[4-chloro-3-(trifluoromethyl)phenyl]-1-{3-[2-(dimethylamino)ethoxy]-4-methylphenyl}urea] | 10 µM | 12.3 µM | 2.8 µM | 2.5 µM |  |  |  |  |  | 7 | 7 µM | 
7 | Cc1ccc(NC(=O)Nc2cc(C(F)(F)F)cc(C(F)(F)F)c2)cc1OCCN1CCNCC1 [Compound 25, 4-{2-[5-({[3,5-bis(trifluoromethyl)phenyl]carbamoyl}amino)-2-methylphenoxy]ethyl}piperazine-1,4-diium dichloride] | 10 µM |  | 3.1 µM | 5.2 µM |  |  |  |  |  | 10 | 6 µM | 
8 | O=C(Nc1ccc(Cl)c(Cl)c1)Nc1ncccc1O [Compound 26] | 40 µM | > 20 µM | 1.8 µM | 2 µM |  |  |  |  |  | 12 | 13 µM | 
9 | O=C(Nc1ccc(Cl)c(C(F)(F)F)c1)Nc1ccc2nnsc2c1 [Compound 1780] |  |  |  |  | 14.8 µM | 0.1 µM | 1.3 µM | 0.8 µM | 0.9 µM |  |  | 
10 | O=C(Nc1ccc(Cl)c(Cl)c1)Nc1ccc2nnsc2c1 [Compound 1781] |  |  |  |  | 17.1 µM | 0.5 µM | 3 µM | 1.2 µM | 1.1 µM |  |  | no apparent in vivo toxicity

Second part, led by results:

Row | Cmax [1] | IC50 [2, 8] | IC50 [3, 9] | IC50 [4, 10] | IC50 [2, 11] | IC50 [3, 12] | IC50 [4, 13] | IC50 [5] | IC50 [6] | Structure (SMILES) | maximal fold induction [1] | EC (activity threshold of 5) [1] | In vivo toxicity [7]
11 | 2.5 µM |  | 1.7 µM | 2.8 µM |  |  |  |  |  | O=C(Nc1ccc(Cl)c(C(F)(F)F)c1)Nc1ccc(Cl)c(C(F)(F)F)c1 [Compound 2, 1,3-bis[4-chloro-3-(trifluoromethyl)phenyl]urea] | 11 | 1.5 µM | 
12 | 2.5 µM | 3.9 µM | 0.1 µM | 0.6 µM |  |  |  |  |  | O=C(Nc1cc(C(F)(F)F)cc(C(F)(F)F)c1)Nc1cc(C(F)(F)F)cc(C(F)(F)F)c1 [Compound 3, 1,3-bis[3,5-bis(trifluoromethyl)phenyl]urea] | 11 | 1.5 µM | 
13 | 20 µM | > 20 µM | 1.8 µM | 9 µM |  |  |  |  |  | Cc1ccc(NC(=O)Nc2ccc(Cl)c(Cl)c2)cc1O [Compound 4, 3-(3,4-dichlorophenyl)-1-(3-hydroxy-4-methylphenyl)urea] | 13 | 11 µM | 
14 | 5 µM | 13.5 µM | 1 µM | 3.2 µM |  |  |  |  |  | Cc1ccc(NC(=O)Nc2cc(C(F)(F)F)cc(C(F)(F)F)c2)cc1O [Compound 6, 3-[3,5-bis(trifluoromethyl)phenyl]-1-(3-hydroxy-4-methylphenyl)urea] | 13 | 3 µM | 
15 | 20 µM | 13.5 µM | 5.3 µM | 5.8 µM |  |  |  |  |  | Cc1ccc(NC(=O)Nc2ccc(Cl)c(Cl)c2)cc1OCCN(C)C [Compound 11, 3-(3,4-dichlorophenyl)-1-{3-[2-(dimethylamino)ethoxy]-4-methylphenyl}urea] | 7.5 | 8 µM | 
16 | 10 µM | 20 µM |  | 2.4 µM |  |  |  |  |  | Cc1ccc(NC(=O)Nc2ccc(Cl)c(Cl)c2)cc1OCCN1CCOCC1 [Compound 15, 3-(3,4-dichlorophenyl)-1-{4-methyl-3-[2-(morpholin-4-yl)ethoxy]phenyl}urea] | 5.5 | 9 µM | 
17 | 10 µM | > 20 µM | 0.9 µM | 2.7 µM |  |  |  |  |  | Cc1ccc(NC(=O)Nc2ccc(Cl)c(C(F)(F)F)c2)cc1OCCN1CCOCC1 [Compound 16, 3-[4-chloro-3-(trifluoromethyl)phenyl]-1-{4-methyl-3-[2-(morpholin-4-yl)ethoxy]phenyl}urea] | 7 | 7 µM | 
18 | 10 µM | 18.6 µM | 0.8 µM | 2.3 µM |  |  |  |  |  | Cc1ccc(NC(=O)Nc2cc(C(F)(F)F)cc(C(F)(F)F)c2)cc1OCCN1CCOCC1 [Compound 17, 3-[3,5-bis(trifluoromethyl)phenyl]-1-{4-methyl-3-[2-(morpholin-4-yl)ethoxy]phenyl}urea] | 9 | 3 µM | 
19 | 10 µM | > 20 µM | 5.1 µM | 4.5 µM |  |  |  |  |  | Cc1ccc(NC(=O)Nc2ccc(Cl)c(Cl)c2)cc1OCCN1CCNCC1 [Compound 23, 4-[2-(5-{[(3,4-dichlorophenyl)carbamoyl]amino}-2-methylphenoxy)ethyl]piperazine-1,4-diium dichloride] | 7.5 | 7 µM | 
20 | 40 µM | 12.5 µM | 0.8 µM | 1.2 µM |  |  |  |  |  | O=C(Nc1ccc(Cl)c(C(F)(F)F)c1)Nc1ncccc1O [Compound 27] | 6.5 | 10 µM | 
21 |  |  |  |  | > 20 µM | 20 µM | 9.5 µM | > 20 µM |  | O=C(Nc1ccc(Cl)c(Cl)c1)Nc1cc([N+](=O)[O-])ccc1Cl [Compound 1527] |  |  | 
22 |  |  |  |  | 8.5 µM | 0.3 µM | 0.1 µM | 1.3 µM | 1.4 µM | O=C(Nc1ccc(Cl)cc1)Nc1ccc2nonc2c1 [KM094748] |  |  | 
